Data on one compound can be found in patent publication US10751274B1, “Fast-acting micelle nanoparticle and cosmetic composition comprising same” (FOREST COMPANY, priority 2017, dated 2020).

The subject of the data set is ICR mouse skin. The data set can be described thus: Mouse skin penetration experiment, Franz diffusion cell. The data set is classed as in vitro ADME, ICR outbred albino mice. To be noted: after 24 hr. As for the experimental part:
In order to evaluate the transdermal penetration rate of the micelle nanoparticles of Example 1, a mouse skin penetration experiment was performed through a Franz diffusion cell using the micelle nanoparticles as a sample. The mouse skin was extracted from the back of ICR outbred albino mice (12-week-old, about 50 g, females), which were killed by cervical dislocation. The subcutaneous fat was removed from the extracted skin (1.5 cm×1.5 cm) so that the skin was not hurt, and the dermis was used without being removed. The skin was fixed between the donor and the receptor phase so that the stratum corneum part of the back skin of the prepared ICR mice faced upwards.
The transepidermal area contacting the receptor phase was 0.6362 cm^2, and the receptor phase was a mixed solution of 2.0% HCO-60 (in 20% ethanol), showing the highest solubility in the preliminary experiments. 5 ml of the receptor phase was placed in a Franz diffusion cell, and the temperature was maintained at 37.0±0.5° C. using a constant-temperature water bath. Stirring to homogeneity was performed at 150 rpm for 24 hr. 0.5 ml of each sample was applied to the transepidermal surface of the donor, after which 0.75 ml of the receptor phase was collected every 8 hr (a total of 3 times) for 24 hr through a sampling port using a 1 ml syringe and stored in a 1.5 ml tube. Immediately after collection, supplementation with the same amount of the receptor solution was conducted. As such, the collected sample was analyzed through HPLC in order to quantify […] therein.
In order to measure the amount of PhS1P remaining on the skin, unpenetrated samples were washed three times with PBS immediately after taking the skin out of the diffusion cell. […] The ethanol was evaporated to dryness, after which PhS1P was dissolved again in 0.75 ml of ethanol, and the amount of PhS1P remaining on the skin was quantified through HPLC. […]

Turning to `CCCCCCCCCCCCCC[C@@H](O)[C@@H](O)[C@@H](N)COP(=O)(O)O` [PhS1P solution, phytosphingosine-1-phosphate], the “amount of PhS1P remaining in the stratum corneum (tape stripping)” value amounted to 1.81 µg. The “amount of PhS1P that penetrated the skin (final cumulative)” value (receptor phase sampled every 8 hr, 0.5 ml sample) was 2.52 µg. Moreover, under “tape-stripped skin”, the “amount of PhS1P present in the skin” value worked out at 2.72 µg.
